Source: patent US9168286B2, “Methods and compositions for use in treatment of patients with autoantibody positive disease” (Human Genome Sciences, Inc., priority 2005, dated 2015)

B1: IL-4: cytokine (protein, UniProt P05112 25-153, looked up)
Interleukin-4: HKCDITLQEIIKTLNSLTEQKTLCTELTVTDIFAASKNTTEKETFCRAATVLRQFYSHHEKDTRCLGATAQQFHRHKQLIRFLKRLDRNLWGLAGLNSCPVKEANQSTLENFLERLKTIMREKYSKCSS
B2: IL-10: cytokine (protein, UniProt P22301 19-178, looked up)
Interleukin-10: SPGQGTQSENSCTHFPGNLPNMLRDLRDAFSRVKTFFQMKDQLDNLLLKESLLEDFKGYLGCQALSEMIQFYLEEVMPQAENQDPDIKAHVNSLGENLKTLRLRLRRCHRFLPCENKSKAVEQVKNAFNKLQEKGIYKAMSEFDIFINYIEAYMTMKIRN
B3: IFN gamma: cytokine (protein, UniProt P01579 24-161, looked up)
Interferon gamma: QDPYVKEAENLKKYFNAGHSDVADNGTLFLGILKNWKEESDRKIMQSQIVSFYFKLFKNFKDDQSIQKSVETIKEDMNVKFFNSNKKKRDDFEKLTNYSVTDLNVQRKAIHELIQVMAELSPAAKTGKRKRSQMLFRG

Legend:
Akt/mTOR pathway = test: Western blotting of Akt/mTOR pathway phosphorylation in B cells; assay type: cell-based, mouse
Experimental: Cell cultures: Purified B cells or CD23′ B cells were cultured in RPMI-1640 supplemented with 2-mercaptoethanol, MEM-non-essential amino acids, glutamine, penicillin and streptomycin (complete media, CM). For B cell survival and other assays recombinant human Neutrokine-alpha made at Human Genome Sciences, Rockville Md. was used at 50-100 ng/ml. FLAG-tagged human Neutrokine-alpha was from Dr. Randolph Noelle, Dartmouth Medical School. Murine Neutrokine-alpha was purchased from Alexis Biochemicals, San Diego Calif. and human interferon alpha (IFNα) from PBL Biomedical, Piscataway, N.J. Rapamycin was used at a final concentration of 50 nM, added to cultures from a stock dissolve in methanol. Control B cells in experiments using rapamycin were treated with methanol as a vehicle control. For kinetic assays B cells were prepared and refrigerated overnight at 4° C. 5-6×10^6 purified B cells per sample were spun onto 24-well plates that had been coated with 5 ug/ml monoclonal anti-FLAG M2 antibody (Sigma), washed, blocked with 1% BSA in PBS, followed by the addition of FLAG-tagged human Neutrokine-alpha 2 ug/well an hour prior to washing and cell addition. Unstimulated control B cells were those spun onto wells treated with anti-FLAG antibody alone. B cells were also activated by incubation with anti-murine IgM (5 ug/ml), anti-CD40 (0.5 ug/ml) or 100 ng/ml of recombinant human Neutrokine-alpha added to kinetic assay buffer (Hank's balanced salt solution plus 2% BSA).
Antibodies and Western Blotting: Mouse anti-Pim 2 (1D12), Pim 1 (19F7), goat anti-actin (1-19), anti-mouse Ig, anti-rabbit Ig and anti-goat Ig coupled to HRP were obtained from Santa Cruz Biotechnology, Santa Cruz Calif. […] Rabbit anti-mouse Mcl-1 was purchased from Rockland, Wilmington Mass. […]
Purified B cells were stimulated for the 0, 5, 20, 60 or 120 minutes with 100 ng/ml recombinant human or murine Neutrokine-alpha or anti-Ig (positive control) at 37° C. in pregassed medium. Lysates were prepared from iced samples and analyzed by Western Blot. […]

Pim1 and Pim 2 = test: Western blot of Pim1 and Pim 2 expression in primary B cells; assay type: cell-based, mouse; settings: 2 days, 100 ng/ml rhuNeutrokine-alpha
Experimental: Antibodies and Western Blotting: Mouse anti-Pim 2 (1D12), Pim 1 (19F7), goat anti-actin (1-19), anti-mouse Ig, anti-rabbit Ig and anti-goat Ig coupled to HRP were obtained from Santa Cruz Biotechnology, Santa Cruz Calif. […] Rabbit anti-mouse Mcl-1 was purchased from Rockland, Wilmington Mass. Whole cell lysates were prepared by washing B cells in ice cold PBS and lysing in RIPA (150 mM NaCl, 1% NP-40, 0.5% sodium deoxycholate, 0.1% SDS, 50 mM Tris pH8.0) supplemented with protease inhibitors (minitab, Roche, Indianapolis Ind.) and phosphatase inhibitor cocktails I and II (Sigma). 10-50 ug of protein was resolved on 4-12% NuPage bis-tris polyacrylamide gels (Invitrogen, Carlsbad Calif.) and transferred to nitrocellulose. Blots were blocked with 3% BSA (Sigma, IgG free), 0.2% Tween-20 in PBS and incubated with primary antibody in the same buffer overnight at 4° C. Blots were washed with PBS-0.2% Tween-20, incubated with secondary antibody conjugated with HRP and developed using ECLplus (Amersham Bioscience, Piscataway N.J.). Blots were stripped for reprobing by incubation for 20 minutes at 65° C. in PBS supplemented with 1% SDS and […] β-mercaptoethanol. Blots were then washed and blocked as above. […]

B cells = test: B cell survival assay; assay type: cell-based, mouse; settings: Pim-1−/−2−/− B cells, 100 ng/ml rhuNeutrokine-alpha, 4 days
Source text: Mice: Pim-1^+/+2^+/+, Pim-1^−/−2^+/+, Pim-1^+/+2^−/− and Pim-1^−/−2^−/− mice were generated from Pim-1^+/−2^+/− stock of Paul Rothman Columbia University, New York, N.Y. C57BL/6 (B6) mice were from The Jackson Laboratory, Bar Harbor Me. or from the National Cancer Institute Production Program, NCI-Fredrick, Fredrick Md. Animals were bred and maintained at the Univ. of Pennsylvania, Harvard Medical School, or the Univ. of Massachusetts Medical School in accordance with Institutional Animal Care and Use Committee guidelines.
B cell purification: Splenic B cells were obtained by anti-thy1.2 and complement treatment of splenocytes followed by purification of resting B cells using a step wise percoll gradient and harvesting cells at the 60-70% interface. […]
Survival assays: B cells at 5×10^6/ml were cultured in 24-well tissue culture dishes in CM at 37° C. […] Survival was monitored daily by counting viable cells using trypan blue exclusion with each determination done in triplicate.
Rapamycin is a potent inhibitor of mTOR and a potent suppressor of B cell proliferation and differentiation. […] Viable cells were determined at day 4. […]

B cell = test: Neutrokine-alpha mediated B cell proliferation with cytokines; assay type: cell-based
Experimental: In an additional embodiment, an immunomodulatory agent is administered in combination with cytokines. Cytokines that may be administered with an immunomodulatory agent include, but are not limited to, GM-CSF, G-CSF, IL2, IL3, IL4, IL5, IL6, IL7, IL10, IL12, IL13, IL15, anti-CD40, CD40L, IFN-alpha, IFN-beta, IFN-gamma, TNF-alpha, and TNF-beta. In another embodiment, an immunomodulatory agent may be administered with any interleukin, including but not limited to, IL-1alpha, IL-1beta, IL-2, IL-3, IL-4, IL-5, IL-6, IL-7, IL-8, IL-9, IL-10, IL-11, IL-12, IL-13, IL-14, IL-15, IL-16, IL-17, IL-18, IL-19, IL-20, IL-21, and IL-22. In preferred embodiments, an immunomodulatory agent is administered in combination with IL4 and IL10. Both IL4 and IL10 have been observed by the inventors to enhance Neutrokine-alpha mediated B cell proliferation.

[1] = system: Neutrokine-alpha in monocytes and macrophages; test: Neutrokine-alpha expression in cytokine-treated monocytes and macrophages; assay type: cell-based; settings: in vitro

Molecule | mTOR activation (phosphorylation of p70 S6 kinase and 4E-BP1) (Akt/mTOR pathway; primary B cells) | Akt phosphorylation (serine 473 and threonine 308) (Akt/mTOR pathway; primary B cells, 100 ng/ml, 0-120 minutes) | phosphorylation of GSKβ, FOXO1 and FOXO3a (Akt/mTOR pathway; purified B cells, plate bound FLAG-tagged or soluble (100 ng/ml) Neutrokine-alpha) | Pim1 and Pim 2 expression (Pim1 and Pim 2) | B cell survival (B cells) | Neutrokine-alpha mediated B cell proliferation (B cell) | cell surface expression of Neutrokine-alpha [1]
Neutrokine-alpha: recombinant human Neutrokine-alpha made at Human Genome Sciences; member of the TNF family of ligands | activation of mTOR | activation of the Akt pathway | phosphorylation of the Akt substrates | upregulate | enhanced survival |  | 
B1 |  |  |  |  |  | enhance | decreased
B2 |  |  |  |  |  | enhance | enhance
B3 |  |  |  |  |  |  | enhance
